{"source": "BindingDB's records for doi:10.1073/pnas.0609412103", "about": "(Genomics Institute of The Novartis Research Foundation, 2007)", "experiment": "Inhibition of Tel-fused RON kinase-mediated mouse BaF3 cell proliferation", "data": [{"smiles": "COc1cc(N2CCC(N3CCN(C)CC3)CC2)ccc1Nc1ncc(Cl)c(Nc2ccccc2S(=O)(=O)C(C)C)n1", "note": "[TAE684]", "values": [{"measurement": "IC50", "value": 1630, "unit": "nM"}]}]}
